From ChEMBL document CHEMBL1201862, “PubChem BioAssay data set” (2004)
The source made the active and inactive calls.

Columns and labels:
[1] = microbe, parasite or virus in culture; format: functional; settings: Mycobacterium tuberculosis
[2] = target: ATP-dependent molecular chaperone HSP82 (Candida albicans (strain WO-1) (Yeast), UniProt C4YTQ8); assay: steroid-induced GRE reporter decrease in yeast – S. cerevisiae, luminescence, Hsp90 inhibitor project, dose response (AID 2400); format: functional, cell-based;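 note: beta-galactosidase luminescence from glucocorticoid response element reporter as proxy for Hsp90 function; inhibitor potency where signal loss means Hsp90 inhibition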
ATP-dependent molecular chaperone HSP82, sequence (C4YTQ8 whole entry): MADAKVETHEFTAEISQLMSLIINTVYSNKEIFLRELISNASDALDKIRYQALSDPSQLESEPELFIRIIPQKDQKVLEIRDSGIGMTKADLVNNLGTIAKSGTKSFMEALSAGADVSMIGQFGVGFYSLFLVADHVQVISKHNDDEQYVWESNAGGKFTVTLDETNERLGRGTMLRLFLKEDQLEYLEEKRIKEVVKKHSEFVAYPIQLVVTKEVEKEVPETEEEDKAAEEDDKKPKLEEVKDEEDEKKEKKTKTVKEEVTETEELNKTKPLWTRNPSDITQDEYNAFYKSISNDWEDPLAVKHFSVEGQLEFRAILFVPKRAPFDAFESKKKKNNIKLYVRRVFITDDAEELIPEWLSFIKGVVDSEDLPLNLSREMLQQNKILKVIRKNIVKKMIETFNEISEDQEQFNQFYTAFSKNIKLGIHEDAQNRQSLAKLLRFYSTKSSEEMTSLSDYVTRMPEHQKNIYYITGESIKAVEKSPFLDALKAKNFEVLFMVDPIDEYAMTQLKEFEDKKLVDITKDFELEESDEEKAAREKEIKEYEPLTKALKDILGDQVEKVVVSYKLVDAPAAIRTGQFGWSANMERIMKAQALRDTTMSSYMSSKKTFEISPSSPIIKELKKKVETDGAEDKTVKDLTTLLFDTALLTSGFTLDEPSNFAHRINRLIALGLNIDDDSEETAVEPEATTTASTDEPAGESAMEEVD

[3] = target: T1, Serine/threonine-protein phosphatase (Candida dubliniensis (strain CD36 / CBS 7987 / NCPF 3949 / NRRLY-17841) (Yeast), UniProt B9W6M3); assay: blockers of CaCl2-induced CDRE-lacZ signaling – S. cerevisiae, luminescence, secondary, dose response (AID 2388); format: functional, cell-based;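 note: yeast reporter cells carrying a calcineurin-responsive lacZ construct stimulated with calcium chloride; luminescent beta-galactosidase reporter signal in whole cells rather than isolated phosphatase activity; potency for inhibition where a drop in reporter signal means calcineurin blockade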
T1 sequence (B9W6M3 whole entry): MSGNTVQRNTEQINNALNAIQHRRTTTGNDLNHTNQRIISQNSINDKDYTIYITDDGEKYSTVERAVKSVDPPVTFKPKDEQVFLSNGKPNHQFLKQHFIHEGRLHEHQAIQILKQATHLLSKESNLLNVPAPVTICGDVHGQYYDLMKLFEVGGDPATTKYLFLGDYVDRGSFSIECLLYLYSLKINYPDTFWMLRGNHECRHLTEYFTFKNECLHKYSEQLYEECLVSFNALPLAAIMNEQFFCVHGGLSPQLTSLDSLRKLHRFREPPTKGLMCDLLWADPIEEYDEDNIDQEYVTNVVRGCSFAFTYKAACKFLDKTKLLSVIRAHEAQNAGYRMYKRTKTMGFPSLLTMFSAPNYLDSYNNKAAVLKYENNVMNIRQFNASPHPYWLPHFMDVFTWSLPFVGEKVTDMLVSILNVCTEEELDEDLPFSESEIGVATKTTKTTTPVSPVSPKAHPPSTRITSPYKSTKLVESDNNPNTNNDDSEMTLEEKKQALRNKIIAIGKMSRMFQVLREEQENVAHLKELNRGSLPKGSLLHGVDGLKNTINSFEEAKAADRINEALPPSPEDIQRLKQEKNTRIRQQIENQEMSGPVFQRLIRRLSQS

[4] = NIH-3T3 fibroblast cytotoxicity, dose response, cytotoxicity control, cell-based, fluorescence, Alamar Blue, secondary assay (AID 2327); format: functional;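 note: NIH-3T3 mouse fibroblasts cultured with fluconazole at 8 µg/mL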
[5] = fluconazole-exposed Candida albicans growth modulators – fluorescence, retest, confirmation (AID 2467); format: functional, cell-based
Nonstructural protein 1 = Nonstructural protein 1 (Influenza A virus, UniProt Q194T2); format: functional, Influenza A virus (A/California/07/2009(H1N1))
Nonstructural protein 1, sequence (Q194T2 whole entry): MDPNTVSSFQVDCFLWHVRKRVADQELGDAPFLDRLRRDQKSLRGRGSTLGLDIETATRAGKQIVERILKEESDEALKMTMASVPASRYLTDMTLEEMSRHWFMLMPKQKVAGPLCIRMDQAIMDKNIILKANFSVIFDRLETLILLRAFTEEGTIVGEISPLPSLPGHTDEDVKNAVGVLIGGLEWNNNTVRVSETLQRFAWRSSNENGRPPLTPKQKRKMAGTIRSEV

[6] = target: FAD-linked sulfhydryl oxidase ALR (Homo sapiens, UniProt P55789); assay: ALR-catalysed DTT oxidation blockers – biochemical, H2O2 detection, luminescence, cherry-pick, dose response (AID 493248)
FAD-linked sulfhydryl oxidase ALR, sequence (P55789 whole entry): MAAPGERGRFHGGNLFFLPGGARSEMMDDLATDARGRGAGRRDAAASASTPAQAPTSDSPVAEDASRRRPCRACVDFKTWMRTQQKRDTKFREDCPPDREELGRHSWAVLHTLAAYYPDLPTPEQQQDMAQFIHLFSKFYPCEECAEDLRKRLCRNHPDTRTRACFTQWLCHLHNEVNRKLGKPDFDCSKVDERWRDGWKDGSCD

INS1 = assay: INS-1E survival protection against cytokine death – cell-based, luminescence, retest, dose response (AID 449756); format: functional; settings: Rattus norvegicus;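 note: cell death triggered by IL-1 beta plus TNF-alpha plus IFN-gamma mixture; protective hits raise ATP signal compared with cytokine alone wells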
[7] = target: T2, Endoribonuclease toxin MazF (Escherichia coli K-12, UniProt P0AE70); assay: substrate-only fluorescence increase artefacts – biochemical, single-stranded RNase substrate, counter-screen for MazEF activator project, dose response (AID 588502); format: functional
T2 sequence (P0AE70 whole entry): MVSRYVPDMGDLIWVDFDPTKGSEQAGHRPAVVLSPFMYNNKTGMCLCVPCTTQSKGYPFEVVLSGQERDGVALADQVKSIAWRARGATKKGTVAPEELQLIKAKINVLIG

[8] = target: T2, Endoribonuclease toxin MazF; assay: activation of MazEF endoribonuclease cleavage – biochemical, fluorescence, single-stranded RNA substrate, uHTS hits, dose response (AID 588481); format: functional
Caspase-3 = target: T3, Caspase-3 (Homo sapiens, UniProt P42574); format: functional;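 note: Dose-response selectivity test against caspase-3 for candidate inhibitors of sentrin-specific proteases (SENPs)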
T3 sequence (P42574 whole entry): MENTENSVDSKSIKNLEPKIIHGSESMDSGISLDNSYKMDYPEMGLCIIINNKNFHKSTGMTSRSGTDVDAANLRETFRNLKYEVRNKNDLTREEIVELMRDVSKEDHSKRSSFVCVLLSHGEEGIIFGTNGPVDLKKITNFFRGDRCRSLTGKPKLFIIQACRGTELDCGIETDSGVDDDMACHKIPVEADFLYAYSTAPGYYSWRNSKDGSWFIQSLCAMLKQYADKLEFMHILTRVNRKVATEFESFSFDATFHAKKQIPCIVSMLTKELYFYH

[9] = target: T4, Sentrin-specific protease 8 (Homo sapiens, UniProt Q96LD8); format: functional;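 note: luminescence read-out of SENP8 inhibition, dose-response confirmation following an ultra-high-throughput screen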
T4 sequence (Q96LD8 whole entry): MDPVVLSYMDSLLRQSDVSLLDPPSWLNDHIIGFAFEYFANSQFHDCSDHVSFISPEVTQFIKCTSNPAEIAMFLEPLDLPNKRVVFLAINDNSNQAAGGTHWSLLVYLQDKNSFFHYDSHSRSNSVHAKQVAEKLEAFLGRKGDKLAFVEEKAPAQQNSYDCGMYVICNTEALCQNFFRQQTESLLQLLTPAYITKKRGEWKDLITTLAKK

[10] = target: T5, Sentrin-specific protease 7 (Homo sapiens, UniProt Q9BQF6); format: functional;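 note: Luminescence-based dose-response confirmation of ultra-high-throughput screening hits, measuring inhibition of SENP7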
T5 sequence (Q9BQF6 whole entry): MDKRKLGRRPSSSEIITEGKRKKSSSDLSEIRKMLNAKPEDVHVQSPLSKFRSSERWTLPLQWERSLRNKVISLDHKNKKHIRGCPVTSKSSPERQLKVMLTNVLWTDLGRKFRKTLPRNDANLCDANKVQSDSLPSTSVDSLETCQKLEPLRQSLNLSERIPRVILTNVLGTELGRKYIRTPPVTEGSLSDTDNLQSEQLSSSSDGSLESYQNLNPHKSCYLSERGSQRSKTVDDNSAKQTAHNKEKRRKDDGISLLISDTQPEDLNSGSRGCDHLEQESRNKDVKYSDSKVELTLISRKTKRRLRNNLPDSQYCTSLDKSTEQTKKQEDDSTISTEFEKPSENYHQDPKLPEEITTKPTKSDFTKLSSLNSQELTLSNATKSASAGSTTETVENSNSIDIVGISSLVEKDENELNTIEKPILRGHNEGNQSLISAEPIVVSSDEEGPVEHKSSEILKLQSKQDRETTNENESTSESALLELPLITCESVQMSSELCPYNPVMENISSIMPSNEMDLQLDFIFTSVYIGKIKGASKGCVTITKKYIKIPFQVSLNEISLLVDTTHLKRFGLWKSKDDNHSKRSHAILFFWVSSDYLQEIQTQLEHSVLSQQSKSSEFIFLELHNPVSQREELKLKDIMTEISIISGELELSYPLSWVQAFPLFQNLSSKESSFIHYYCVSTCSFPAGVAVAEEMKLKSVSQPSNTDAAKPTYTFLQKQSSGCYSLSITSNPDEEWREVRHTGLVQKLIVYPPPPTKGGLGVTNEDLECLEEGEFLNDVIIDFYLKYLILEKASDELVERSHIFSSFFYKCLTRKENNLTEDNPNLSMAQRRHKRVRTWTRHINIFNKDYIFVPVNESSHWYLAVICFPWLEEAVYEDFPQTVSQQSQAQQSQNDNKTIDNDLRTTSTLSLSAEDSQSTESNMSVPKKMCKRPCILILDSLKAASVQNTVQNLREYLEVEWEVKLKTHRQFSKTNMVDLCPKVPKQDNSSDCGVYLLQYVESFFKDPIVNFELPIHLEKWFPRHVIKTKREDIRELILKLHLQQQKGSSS

[11] = target: T6, Sentrin-specific protease 6 (Homo sapiens, UniProt Q9GZR1); format: functional;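 note: Luminescence-based dose-response confirmatory assay of SENP6 inhibition, following up an ultra-high-throughput screen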
T6 sequence (Q9GZR1 whole entry): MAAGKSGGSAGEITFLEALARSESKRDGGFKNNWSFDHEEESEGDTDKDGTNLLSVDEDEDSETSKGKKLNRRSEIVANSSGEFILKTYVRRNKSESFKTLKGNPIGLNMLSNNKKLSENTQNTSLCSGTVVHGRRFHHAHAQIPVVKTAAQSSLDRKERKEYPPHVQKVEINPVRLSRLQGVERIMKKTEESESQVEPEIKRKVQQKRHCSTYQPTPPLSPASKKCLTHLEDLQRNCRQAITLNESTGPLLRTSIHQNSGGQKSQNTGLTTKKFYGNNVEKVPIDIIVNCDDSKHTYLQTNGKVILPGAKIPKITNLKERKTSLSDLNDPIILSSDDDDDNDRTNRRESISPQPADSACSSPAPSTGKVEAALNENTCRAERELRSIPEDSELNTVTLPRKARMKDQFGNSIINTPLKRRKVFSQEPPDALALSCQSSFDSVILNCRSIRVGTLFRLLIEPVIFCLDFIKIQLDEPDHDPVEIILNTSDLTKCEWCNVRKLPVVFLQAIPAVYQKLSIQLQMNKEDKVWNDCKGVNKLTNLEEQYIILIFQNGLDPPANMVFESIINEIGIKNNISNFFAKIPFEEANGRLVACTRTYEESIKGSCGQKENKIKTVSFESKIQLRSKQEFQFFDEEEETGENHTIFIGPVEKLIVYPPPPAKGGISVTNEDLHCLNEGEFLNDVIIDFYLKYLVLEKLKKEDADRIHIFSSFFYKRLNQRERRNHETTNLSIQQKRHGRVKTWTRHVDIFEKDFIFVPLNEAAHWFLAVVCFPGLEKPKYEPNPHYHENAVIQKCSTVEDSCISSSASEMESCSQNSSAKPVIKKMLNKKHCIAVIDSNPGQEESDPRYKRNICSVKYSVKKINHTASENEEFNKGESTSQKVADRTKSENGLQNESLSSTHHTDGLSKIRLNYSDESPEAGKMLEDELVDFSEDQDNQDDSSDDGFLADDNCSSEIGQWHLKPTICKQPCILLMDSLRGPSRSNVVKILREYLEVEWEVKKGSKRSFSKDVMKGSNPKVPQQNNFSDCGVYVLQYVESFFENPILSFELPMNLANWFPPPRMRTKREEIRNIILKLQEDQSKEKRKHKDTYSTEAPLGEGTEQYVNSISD

[12] = target: T7, Oxysterols receptor LXR-beta (Homo sapiens, UniProt P55055); format: functional, cell-based;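 note: agonist activity at LXR measured by a cell-based luminescence readout across a dose range, run as a counterscreen for daf-12 agonists; HEK293 cells with Gal4-LXR fusion and GAL4-driven luciferase reporter; potency for activation of Gal4-LXR reporter so compounds are agonists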
T7 sequence (P55055 whole entry): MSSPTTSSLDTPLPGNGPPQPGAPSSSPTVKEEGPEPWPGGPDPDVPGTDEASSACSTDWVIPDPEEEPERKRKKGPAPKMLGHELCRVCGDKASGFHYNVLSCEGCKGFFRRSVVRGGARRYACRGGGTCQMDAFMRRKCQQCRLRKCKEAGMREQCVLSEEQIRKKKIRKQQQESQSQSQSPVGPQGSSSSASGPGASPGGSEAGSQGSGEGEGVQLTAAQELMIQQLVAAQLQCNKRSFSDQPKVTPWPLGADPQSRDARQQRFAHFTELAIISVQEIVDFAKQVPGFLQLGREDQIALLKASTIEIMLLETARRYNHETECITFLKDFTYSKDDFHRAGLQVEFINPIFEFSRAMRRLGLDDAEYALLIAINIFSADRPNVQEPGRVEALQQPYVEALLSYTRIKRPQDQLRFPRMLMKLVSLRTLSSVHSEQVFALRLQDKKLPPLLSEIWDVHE

Genome polyprotein = Genome polyprotein (dengue virus type 2, UniProt P29990); assay: flavivirus cap methylation enzyme inhibition – biochemical, confirmation dose response, primary screen (AID 588689); format: functional
Genome polyprotein, sequence (P29990 2492-3391 limits assumed): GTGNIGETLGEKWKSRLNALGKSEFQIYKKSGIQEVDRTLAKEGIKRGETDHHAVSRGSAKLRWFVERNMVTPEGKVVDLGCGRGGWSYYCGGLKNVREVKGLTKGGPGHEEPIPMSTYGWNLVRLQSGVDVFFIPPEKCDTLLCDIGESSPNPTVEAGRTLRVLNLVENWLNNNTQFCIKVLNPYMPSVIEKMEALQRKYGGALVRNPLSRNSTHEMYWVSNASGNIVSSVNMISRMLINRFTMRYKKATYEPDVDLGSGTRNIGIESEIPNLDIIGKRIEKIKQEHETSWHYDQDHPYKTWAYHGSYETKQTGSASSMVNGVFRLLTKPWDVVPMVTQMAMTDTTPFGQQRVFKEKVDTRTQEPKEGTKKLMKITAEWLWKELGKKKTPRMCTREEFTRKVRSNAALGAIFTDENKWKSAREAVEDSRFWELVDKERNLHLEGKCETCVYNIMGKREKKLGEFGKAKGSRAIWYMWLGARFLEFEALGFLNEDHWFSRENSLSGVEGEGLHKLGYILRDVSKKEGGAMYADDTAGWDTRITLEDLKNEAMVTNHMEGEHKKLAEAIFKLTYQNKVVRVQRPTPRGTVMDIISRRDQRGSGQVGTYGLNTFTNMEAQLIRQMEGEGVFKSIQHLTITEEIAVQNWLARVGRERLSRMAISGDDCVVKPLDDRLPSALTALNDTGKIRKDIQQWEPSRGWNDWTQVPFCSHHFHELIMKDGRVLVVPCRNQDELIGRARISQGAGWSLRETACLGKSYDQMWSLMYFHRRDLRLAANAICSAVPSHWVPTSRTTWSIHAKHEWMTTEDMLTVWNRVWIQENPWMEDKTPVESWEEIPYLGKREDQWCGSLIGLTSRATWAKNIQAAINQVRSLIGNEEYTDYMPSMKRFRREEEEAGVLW

Cytochrome P450 3A4 = Cytochrome P450 3A4 (Homo sapiens, UniProt P08684);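 note: CYP3A4 tested as one member of a cytochrome P450 panel screen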
Cytochrome P450 3A4, sequence (P08684 whole entry): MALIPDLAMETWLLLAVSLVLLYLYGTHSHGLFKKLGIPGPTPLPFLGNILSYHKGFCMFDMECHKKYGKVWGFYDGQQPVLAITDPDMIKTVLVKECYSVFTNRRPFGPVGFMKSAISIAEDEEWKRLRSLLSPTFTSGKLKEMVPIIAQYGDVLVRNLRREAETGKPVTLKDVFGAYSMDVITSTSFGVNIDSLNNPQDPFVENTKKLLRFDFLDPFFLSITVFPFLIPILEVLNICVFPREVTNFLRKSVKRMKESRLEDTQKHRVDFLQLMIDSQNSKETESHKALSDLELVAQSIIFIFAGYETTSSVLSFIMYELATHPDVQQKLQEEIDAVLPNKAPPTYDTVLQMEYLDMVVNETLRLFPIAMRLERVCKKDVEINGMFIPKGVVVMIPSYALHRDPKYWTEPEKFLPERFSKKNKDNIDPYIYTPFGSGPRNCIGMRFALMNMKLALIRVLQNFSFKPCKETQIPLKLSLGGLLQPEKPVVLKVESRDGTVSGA

Cytochrome P450 2C19 = Cytochrome P450 2C19 (Homo sapiens, UniProt P33261); assay: Cytochrome panel assay with activity outcomes. Panel member name: p450-cyp2c19 Compounds with AC50 equal or less than 10 uM are considered active; format: functional; settings: read-out: AC50
Cytochrome P450 2C19, sequence (P33261 whole entry): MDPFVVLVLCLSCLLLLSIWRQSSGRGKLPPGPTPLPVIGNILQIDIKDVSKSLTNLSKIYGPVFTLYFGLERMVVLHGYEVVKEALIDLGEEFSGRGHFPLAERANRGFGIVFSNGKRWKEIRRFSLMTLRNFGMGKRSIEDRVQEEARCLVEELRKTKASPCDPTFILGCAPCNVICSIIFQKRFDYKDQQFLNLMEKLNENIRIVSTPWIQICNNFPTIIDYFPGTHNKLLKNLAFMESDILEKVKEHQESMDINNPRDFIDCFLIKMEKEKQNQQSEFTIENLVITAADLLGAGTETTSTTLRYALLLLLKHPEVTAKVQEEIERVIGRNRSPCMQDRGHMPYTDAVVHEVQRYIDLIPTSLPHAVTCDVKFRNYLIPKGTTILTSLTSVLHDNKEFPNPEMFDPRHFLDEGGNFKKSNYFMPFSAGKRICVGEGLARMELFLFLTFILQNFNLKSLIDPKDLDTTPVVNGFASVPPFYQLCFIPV

Cytochrome P450 2D6 = Cytochrome P450 2D6 (Homo sapiens, UniProt P10635);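 note: CYP2D6 member of a cytochrome P450 panel assay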
Cytochrome P450 2D6, sequence (P10635 whole entry): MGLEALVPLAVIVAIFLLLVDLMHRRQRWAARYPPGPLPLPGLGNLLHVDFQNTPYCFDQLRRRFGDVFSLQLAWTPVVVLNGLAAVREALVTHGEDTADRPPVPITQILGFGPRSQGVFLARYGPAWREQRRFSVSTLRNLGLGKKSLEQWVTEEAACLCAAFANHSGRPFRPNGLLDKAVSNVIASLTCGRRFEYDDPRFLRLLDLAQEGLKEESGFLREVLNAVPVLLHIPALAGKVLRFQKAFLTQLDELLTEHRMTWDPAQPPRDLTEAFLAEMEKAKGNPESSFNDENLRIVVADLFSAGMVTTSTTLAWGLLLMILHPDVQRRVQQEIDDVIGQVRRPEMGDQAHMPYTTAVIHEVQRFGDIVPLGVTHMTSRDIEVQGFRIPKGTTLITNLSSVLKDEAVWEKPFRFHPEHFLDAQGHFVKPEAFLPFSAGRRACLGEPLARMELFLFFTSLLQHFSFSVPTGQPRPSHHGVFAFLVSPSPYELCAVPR

**Q.** Which results are given for O=[N+]([O-])c1nn(-c2ccc(Cl)cc2)[n+]([O-])c1NCc1cccnc1?
**A.** CC50 [1]: > 40 µM (active); EC50 [2]: > 150 µM (inactive); EC50 [3]: > 180 µM (inactive); EC50 [4]: > 160 µM (inactive); EC50 [5]: 1.11 µM (active)

**Q.** Which results are given for Oc1ccc(N=Nc2nccs2)c(O)c1?
**A.** IC50 (Nonstructural protein 1): 11.4 µM (active); AC50 [6]: 4.55 µM (active); EC50 [2]: 21.8 µM (active); EC50 [3]: > 180 µM (inactive); AC50 (INS1): 2.78 µM (active); EC50 [4]: 16 µM (inconclusive); EC50 [5]: 1.19 µM (active)

**Q.** For COc1cccc(C2=CC(c3ccc(N(C)C)cc3)n3nnnc3N2)c1 (stereo unspecified), which EC50 [7] is on record?
**A.** > 99 µM (inactive)

**Q.** What about the EC50 [8] of the same compound?
**A.** > 99 µM (inactive)

**Q.** For CCOc1ccc2nc(NC(=O)Nc3cccs3)sc2c1, which IC50 (Caspase-3) is on record?
**A.** 29.9 µM (active)

**Q.** And the IC50 [9]?
**A.** 24.1 µM (active)

**Q.** What about the IC50 [10] of the same compound?
**A.** 8.66 µM (active)

**Q.** And the IC50 [11]?
**A.** 19.2 µM (active)

**Q.** What about the EC50 [12] of the same compound?
**A.** > 67.5 µM (inactive)

**Q.** Which EC50 [7] does the source give for CSC1=N/C(=C\c2ccc(C)s2)C(=O)S1 here?
**A.** 72 µM (inactive)

**Q.** And the EC50 [8]?
**A.** 89.7 µM (inactive)

**Q.** Which IC50 (Genome polyprotein) does the source give for C=CCOc1ccc(/C=C2/C(=O)ON=C2C)cc1OCC here?
**A.** > 100 µM (active)

**Q.** What does the source list for O=C(Nc1cccc(F)c1)N1CCC2(CC1)CCN(C(=O)c1ccco1)CC2?
**A.** AC50 (Cytochrome P450 3A4): inconclusive; AC50 (Cytochrome P450 2C19): 10 µM (inconclusive)

**Q.** Which results are given for O=C(c1cc(C(F)(F)F)cc(C(F)(F)F)c1)N1CCC2(CCN(Cc3nccs3)CC2)CC1?
**A.** AC50 (Cytochrome P450 3A4): inconclusive; AC50 (Cytochrome P450 2D6): 10 µM (inconclusive)
